# Legend:
# [1] = test system: Toxocara canis; experiment: Prevention of vertical (prenatal) Toxocara canis infection in pups of experimentally infected beagle bitches treated during pregnancy; assay type: in vivo; settings: for percentage efficacy, number of excreted eggs per gram of faeces: measured in pups; for percentage efficacy, number of intestinal stages in the intestine: pups euthanised on 35th day of life
# Description: (§1) The investigations were carried out on eighteen beagle bitches which had been experimentally infected with Toxocara canis. Six of these animals served as the untreated control group. Two different treatment schemes were used. In treatment group 1 (T1), six bitches were treated daily, from the 42nd day of pregnancy onwards until the birth of the pups, with in each case 1 mg of emodepside/kg of body weight, given orally as a tablet formulation; the six bitches in treatment group 2 (T2) were treated in the same way except that the treatment was only given every third day instead of daily. The efficacy of the treatment was assessed by determining three target quantities in the pups: number of somatic T. canis larvae in samples of the liver, lung, kidney and gastrointestinal tract including content and musculature (euthanasia of the pups directly after birth), number of excreted eggs per gram of faeces and number of intestinal T. canis stages after washing out the intestine (euthanasia of the pups on the 35th day of life).
# [2] = Tolerability in dams and pups in the beagle study; assay type: in vivo; settings: 1 mg/kg orally, T1 and T2
# Description: as §1
# Incompatibility phenomena were not observed either in the dam or in the pups.
# [3] = T2: 1 mg/kg orally, every third day from 42nd day of pregnancy until birth
structure (smiles),measurement,setting,value
CC(C)C[C@H]1C(=O)O[C@H](Cc2ccc(N3CCOCC3)cc2)C(=O)N(C)[C@@H](CC(C)C)C(=O)O[C@H](C)C(=O)N(C)[C@@H](CC(C)C)C(=O)O[C@H](Cc2ccc(N3CCOCC3)cc2)C(=O)N(C)[C@@H](CC(C)C)C(=O)O[C@H](C)C(=O)N1C [emodepside],mean value of percentage efficacy obtained from the target quantities,[1]; T1 (daily treatment),98.7%
same,"percentage efficacy, number of excreted eggs per gram of faeces","[1]; T1: 1 mg emodepside/kg body weight orally as tablet, daily from 42nd day of pregnancy until birth",99.9%
same,"percentage efficacy, number of somatic larvae in the digestive organs","[1]; T1: 1 mg/kg orally, daily from 42nd day of pregnancy until birth, pups euthanised directly after birth",96.4%
same,"percentage efficacy, number of intestinal stages in the intestine","[1]; T1: 1 mg/kg orally, daily from 42nd day of pregnancy until birth",99.9%
same,mean value of percentage efficacy obtained from the target quantities,[1]; T2 (treatment every third day),97.5%
same,"percentage efficacy, number of excreted eggs per gram of faeces",[1]; [3],99.9%
same,"percentage efficacy, number of somatic larvae","[1]; T2: 1 mg/kg orally, every third day from 42nd day of pregnancy until birth, pups euthanised directly after birth",93.8%
same,"percentage efficacy, number of intestinal stages in the intestine",[1]; [3],98.7%
same,prenatal infection with T. canis in the pups,[1]; both treatment schemes (T1 and T2),marked reduction
same,incompatibility phenomena in the dam or in the pups,[2],not observed

# — patent US20090215678A1, “Preventing Vertical Endoparasite Infections” (BAYER HEALTHCARE AG, priority 2004, published 2009)
